We go through two molecules from patent US20260130372A1 (SYNGENTA CROP PROTECTION AG, priority 2022, published 2026).

Structures are written as SMILES.

The test system of experiment [1] is Botrytis cinerea. In words: liquid culture assay, 96well plate, photometric growth inhibition. The experiment is classed as cell-based. As to the method:
Streptimidone (CAS: 738-72-7) was purchased from a commercial vendor. A stock solution for streptimidone was produced in DMSO (max. 10 mg/ml). Malonomicin was produced according to Law et al, 2018 (Nature Catalys is |VOL 1|December 2018|977-984). A stock solution of malonomicin was produced in water plus 0.025% Tween20.
Assays to test efficacy of mixtures of streptimidone in combination with malonomicin on the control of fungal pathogens in a liquid culture assay were designed for a 96well plate.
Table1: outline of 96well testplate including concentration of compounds per well. The upper number in the cell indicates malonomicin concentration (ppm), the lower number streptimidone concentration (ppm). Column (1) holds a dilution series of streptimidone, row (H) holds a dilution series of malonomicin, column (12) holds cells representing untreated check.
The 96 well plate design allows to compare disease control of the mixture with disease control of the respective single compound at the same rate.
A master plate with 10× concentrated solution of the compound stock solutions diluted in water plus 0.025% Tween20 was prepared. The concentration of DMSO (from the stock of streptimidone) and Tween20 was kept constant in all cells of the master plate. 10 μl was transferred from the master plate to a 96well test plate. The nutrient broth containing the fungal spores/mycelia fragments was then added to the test plate to give an end concentration of 1× for the tested compounds (as outlined in table 1). The test plates were incubated in the dark at […] and 96% rh. The inhibition of fungal growth was determined photometrically after ca 3 days, and percent fungal growth reduction relative to the untreated check was calculated. Efficacy of the mixtures was tested on a fungal species: Botrytis cinerea (EPPO code: BOTRCI)
Conidia of the fungus from cryogenic storage were directly mixed into nutrient broth (Vogel's minimal media).

For experiment [2], the system named is Puccinia recondita. The experiment in a line: leaf disc assay on wheat leaf segments, preventive spray timing. The experiment is classed as in vivo. As to the method: (§1) Streptimidone (CAS: 738-72-7) was purchased from a commercial vendor. A stock solution for streptimidone was produced in DMSO (max. 10 mg/ml). Malonomicin was produced according to Law et al, 2018 (Nature Catalys is |VOL 1|DECEMBER 2018|977-984). A stock solution of malonomicin was produced in water plus 0.025% Tween20.
(§2) Assays to test efficacy of mixtures of streptimidone in combination with malonomicin on the control of fungal pathogens in a leaf disc assay were designed for two 24well plates.
(§3) Table 5 and table 6: Outline of 24well testplate(1) and testplate(2) including concentration of compounds sprayed per well. The upper number in the cell indicates streptimidone concentration (ppm), the lower number malonomicin concentration (ppm). Column (1) holds a dilution series of streptimidone, row (2-D) holds a dilution series of malonomicin. Well 2-D-(1) represents an untreated check. This design was applied for tests including Puccinia recondita (EPPO code: PUCCRE) with preventive and curative spray timing.
(§4) A first set of master plates with 1× concentrated spray solution of the streptimidone stock diluted in water with concentrations according to table 5 or table 6, respectively, was prepared. Each well contained 2% DMSO and 0.025% Tween20. Accordingly, a second set of master plates with 1× concentrated malonomicin stock diluted in water was prepared. Each well of the second set contained 0.025% Tween20. Leaf segments placed on agar in 24well plates are sprayed with 8 ul of solution from the master plate containing streptimidone and the leaf segments were let to dry, followed 2 hours later by 8 ul of solution from the master plate containing malonomicin. After second sprays have dried, leaf segments are infected with fungal spores to obtrain a preventive application timing. Alternativeley, leaf segments infected one day before spray of the compounds are used, resulting in a curative spray timing. In addition, several plates were produced where leaf segments were sprayed 2× in absence of test compound (with only DMSO and Tween20), representing the untreated check samples. For each leaf segment percent leaf coverage of disease symptoms was assessed. Percent leaf coverage reduction relative to the untreated check was calculated. Efficacy of the mixtures was tested in duplicate and on different fungal species. Reported efficacy values are the average of two replicate results.
Puccinia recondita (EPPO Code: PUCCRE) with Preventive Spray Timing.
Wheat (cultivar Kanzler) leaf segments are placed on agar in multiwell plates (24-well format) and sprayed with test solutions (8 ul per well). After drying, the leaf disks are inoculated with a spore suspension of the fungus. After appropriate incubation the activity of a compound is assessed 8 dpi (days after inoculation) as preventive fungicidal activity.

For experiment [3], the system named is Puccinia recondita. In words: leaf disc assay on wheat leaf segments, curative spray timing. The format is in vivo. On the procedure: as §1, §2, §3, §4
Puccinia recondita (EPPO Code: PUCCRE) with Curative Spray Timing.
Wheat (cultivar Kanzler) leaf segments are placed on agar in multiwell plates (24-well format). The leaf disks are then inoculated with a spore suspension of the fungus. One day after inoculation the test solution is sprayed (8 ul per well). After appropriate incubation the activity of a compound is assessed 8 dpi (days after inoculation) as curative fungicidal activity

Take `C=C/C(C)=C/[C@H](C)C(=O)C[C@H](O)CC1CC(=O)NC(=O)C1` [streptimidone, Streptimidone]: the “control of fungal growth” value in experiment [1] (well A(1), streptimidone 100 ppm solo) was determined as 0%; in experiment [1] (well B(1), streptimidone 50 ppm solo) it was 0%; in experiment [1] (well C(1), streptimidone 25 ppm solo), 0%; in experiment [1] (well D(1), streptimidone 12.5 ppm solo), 0%; in experiment [1] (well E(1), streptimidone 6.25 ppm solo) it was 0%; in experiment [1] (well F(1), streptimidone 3.125 ppm solo), 0%. Besides, the “control of fungal growth” value in experiment [1] (well G(1), streptimidone 1.56 ppm solo) was 0%. Further, the “control of fungal growth (reduction of symptoms on the leaf segment)” value in experiment [2] (well 1-A(1), streptimidone 200 ppm solo) turned out to be 10%; in experiment [2] (well 1-B(1), streptimidone 100 ppm solo), 35%; in experiment [2] (well 1-C(1), streptimidone 50 ppm solo), 0%; in experiment [2] (well 1-D(1), streptimidone 25 ppm solo), 0%; in experiment [2] (well 2-A(1), streptimidone 12.5 ppm solo), 10%; in experiment [2] (well 2-B(1), streptimidone 6.25 ppm solo) it was 0%. Moreover, the “control of fungal growth (reduction of symptoms on the leaf segment)” value in experiment [2] (well 2-C(1), streptimidone 3.13 ppm solo) is 0%; in experiment [3] (curative, well 1-A(1), streptimidone 200 ppm solo) it was 20%; in experiment [3] (curative, well 1-B(1), streptimidone 100 ppm solo), 20%; in experiment [3] (curative, well 1-C(1), streptimidone 50 ppm solo), 25%; in experiment [3] (curative, well 1-D(1), streptimidone 25 ppm solo) it was 35%; in experiment [3] (curative, well 2-B(1), streptimidone 6.25 ppm solo), 0%. Moreover, the “control of fungal growth (reduction of symptoms on the leaf segment)” value in experiment [3] (curative, well 2-C(1), streptimidone 3.13 ppm solo) was determined as 0%; in experiment [3] (in vivo), 0%.
`NC[C@@H]1NC(=O)C(C(=O)CC(NC(=O)[C@@H](N)CO)(C(=O)O)C(=O)O)=C1O` [malonomicin, {[(2S)-2-amino-3-hydroxypropanoyl]amino}{2-[(5S)-5-(aminomethyl)-4-hydroxy-2-oxo-2,5-dihydro-1H-pyrrol-3-yl]-2-oxoethyl}malonic acid]: the “control of fungal growth” value was 70% in experiment [1] (well H(2), malonomicin 1000 ppm solo); 70% in experiment [1] (well H(3), malonomicin 500 ppm solo); 70% in experiment [1] (well H(4), malonomicin 250 ppm solo); 70% in experiment [1] (well H(5), malonomicin 125 ppm solo); 70% in experiment [1] (well H(6), malonomicin 62.5 ppm solo); 50% in experiment [1] (well H(7), malonomicin 31.25 ppm solo). Further, the “control of fungal growth” value in experiment [1] (well H(8), malonomicin 15.63 ppm solo) is given as 0%; in experiment [1] (well H(9), malonomicin 7.81 ppm solo), 0%; in experiment [1] (well H(10), malonomicin 3.00 ppm solo) it was 0%; in experiment [1] (well H(11), malonomicin 1.00 ppm solo) it was 0%. Besides, the “control of fungal growth (reduction of symptoms on the leaf segment)” value worked out at 100% in experiment [2] (well 2-D(2), malonomicin 200 ppm solo); 100% in experiment [2] (well 2-D(3), malonomicin 20 ppm solo); 80% in experiment [2] (well 2-D(4), malonomicin 6.67 ppm solo); 10% in experiment [2] (well 2-D(5), malonomicin 2.22 ppm solo); 0% in experiment [2] (well 2-D(6), malonomicin 0.74 ppm solo); 100% in experiment [3] (curative, well 2-D(2), malonomicin 200 ppm solo). The “control of fungal growth (reduction of symptoms on the leaf segment)” value in experiment [3] (curative, well 2-D(3), malonomicin 20 ppm solo) was 100%; in experiment [3] (curative, well 2-D(4), malonomicin 6.67 ppm solo), 100%; in experiment [3] (curative, well 2-D(5), malonomicin 2.22 ppm solo), 70%; in experiment [3] (curative, well 2-D(6), malonomicin 0.74 ppm solo), 35%.
